Target: CREBBP (Homo sapiens (Human), UniProt Q92793)
Assay: In vitro enzyme inhibition assay - CREBBP inhibition (AlphaScreen, biotinylated H4-tetraacetyl peptide)
Assay type: binding
Settings: Table 28; AlphaScreen, H4-tetraacetyl peptide
Protocol: Determination of the IC50 for the CREBBP inhibitors disclosed herein was performed as follows: CREBBP was cloned and expressed in E. Coli as His-tag protein and purified by Nickel affinity and gel-filtration chromatography. […] CREBBP binding and inhibition was assessed by monitoring the interaction of biotinylated H4-tetraacetyl peptide (AnaSpec, H4K5/8/12/16(Ac), biotin-labeled) with the target using the AlphaScreen technology (Perkin Elmer). In a 384-well ProxiPlate CREBBP (50 nM final) was combined with peptide (20 nM final) in 50 mM HEPES (pH 7.3), 10 mM NaCl, 0.25 mM TCEP, 0.1% (w/v) BSA, and 0.005% (w/v) Brij-35 either in the presence of DMSO (final 0.4% DMSO) or compound dilution series in DMSO. After 20-minute incubation at room temperature, Alpha streptavidin donor beads and Nickel Chelate acceptor beads were added to a final concentration of 5 μg/mL. After two hours of equilibration, plates were read on an Envision instrument and the IC50 was calculated using a four parameter non-linear curve fit.
The ability of the compounds disclosed herein to inhibit CBP activity was quantified and the respective IC50 value was determined.

Chain of CREBBP (Q92793 1081-1197): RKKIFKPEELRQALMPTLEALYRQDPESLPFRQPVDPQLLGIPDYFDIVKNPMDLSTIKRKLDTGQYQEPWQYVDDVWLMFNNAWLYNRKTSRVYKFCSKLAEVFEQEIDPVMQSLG

Row | IC50 [nM] | Compound
1 | < 500 | CCCCNc1cc(-c2ccc(=O)n(C)c2)nc(Oc2c(C)cccc2F)n1 [Example 304, 5-[6-Butylamino-2-(2-fluoro-6-methyl-phenoxy)-pyrimidin-4-yl]-1-methyl-1H-pyridin-2-one]
2 | < 500 | Cn1cc(-c2cc(NS(=O)(=O)CCCC(F)(F)F)nc(Oc3c(F)cccc3Cl)n2)ccc1=O [Example 232, 4,4,4-Trifluoro-butane-1-sulfonic acid [2-(2-chloro-6-fluoro-phenoxy)-6-(1-methyl-6-oxo-1,6-dihydro-pyridin-3-yl)-pyrimidin-4-yl]-amide]
3 | < 500 | Cc1cccc(C#N)c1Oc1nc(NCc2ccccn2)cc(-c2ccc(=O)n(C)c2)n1 [Example 319, 3-Methyl-2-{4-(1-methyl-6-oxo-1,6-dihydro-pyridin-3-yl)-6-[(pyridin-2-ylmethyl)-amino]-pyrimidin-2-yloxy}-benzonitrile]
4 | < 500 | CCCS(=O)(=O)Nc1cc(-c2ccc(=O)n(C)c2)nc(Oc2c(C)ccc(F)c2F)n1 [Example 348, N-(2-(2,3-difluoro-6-methylphenoxy)-6-(1-methyl-6-oxo-1,6-dihydropyridin-3-yl)pyrimidin-4-yl)propane-1-sulfonamide]
5 | 500 to 5000 | CCS(=O)(=O)Nc1cc(-c2ccc(=O)n(C)c2)nc(-c2ccc(C)cc2OC)n1 [Example 194, Ethanesulfonic acid [2-(2-methoxy-4-methyl-phenyl)-6-(1-methyl-6-oxo-1,6-dihydro-pyridin-3-yl)-pyrimidin-4-yl]-amide]
6 | < 500 | CCCS(=O)(=O)Nc1cc(-c2ccc(=O)n(C)c2)nc(Oc2c(C)cccc2Cl)n1 [Example 103, Propane-1-sulfonic acid [2-(2-chloro-6-methyl-phenoxy)-6-(1-methyl-6-oxo-1,6-dihydro-pyridin-3-yl)-pyrimidin-4-yl]-amide]
7 | 500 to 5000 | CCS(=O)(=O)Nc1cc(-c2cc(C)c(=O)n(C)c2)nc(-c2ccccc2)n1 [Example 191, Ethanesulfonic acid [6-(1,5-dimethyl-6-oxo-1,6-dihydro-pyridin-3-yl)-2-phenyl-pyrimidin-4-yl]-amide]
8 | < 500 | CCCS(=O)(=O)Nc1cc(-c2ccc(=O)n(C)c2)nc(Oc2c(F)cccc2CC)n1 [Example 339, N-(2-(2-ethyl-6-fluorophenoxy)-6-(1-methyl-6-oxo-1,6-dihydropyridin-3-yl)pyrimidin-4-yl)propane-1-sulfonamide]
9 | < 500 | CCC[C@@H](C)Nc1cc(-c2ccc(=O)n(C)c2)nc(Oc2c(C)cccc2Cl)n1 [Example 313, (R)-5-[2-(2-Chloro-6-methyl-phenoxy)-6-(1-methyl-butylamino)-pyrimidin-4-yl]-1-methyl-1H-pyridin-2-one]
10 | < 500 | CCC[C@H](C)S(=O)(=O)Nc1cc(-c2ccc(=O)n(C)c2)nc(Oc2c(C)cccc2Cl)n1 [Example 217, (2S)-Pentane-2-sulfonic acid [2-(2-chloro-6-methyl-phenoxy)-6-(1-methyl-6-oxo-1,6-dihydro-pyridin-3-yl)-pyrimidin-4-yl]-amide]
11 | < 500 | CCCS(=O)(=O)Nc1cc(-c2cc(C)c(=O)n(C)c2)nc(Oc2cc(C(C)C)ccc2Cl)n1 [Example 39, Propane-1-sunnic acid [2-(2-chloro-5-isopropyl-phenoxy)-6-(1,5-dimethyl-6-oxo-1,6-dihydro-pyridin-3-yl)-pyrimidin-4-yl]-amide]
12 | < 500 | Cc1cc(-c2cc(NS(C)(=O)=O)nc(Oc3ccc(F)cc3F)n2)cn(C)c1=O [Example 61, N-(2-(2,4-difluorophenoxy)-6-(1,5-dimethyl-6-oxo-1,6-dihydropyridin-3-yl)pyrimidin-4-yl)methanesulfonamide]
13 | < 500 | CCCCS(=O)(=O)Nc1cc(-c2ccc(=O)n(C)c2)nc(Oc2c(F)cccc2Cl)n1 [Example 139, Butane-1-sulfonic acid [2-(2-chloro-6-fluoro-phenoxy)-6-(1-methyl-6-oxo-1,6-dihydro-pyridin-3-yl)-pyrimidin-4-yl]-amide]
14 | < 500 | Cc1cccc(Cl)c1Oc1nc(-c2cc(C)c(=O)n(C)c2)cc(S(C)(=O)=O)n1 [Example 133, 5-[2-(2-Chloro-6-methyl-phenoxy)-6-methanesulfonyl-pyrimidin-4-yl]-1,3-dimethyl-1H-pyridin-2-one]
15 | 500 to 5000 | CCCS(=O)(=O)Nc1nc(OC(C)C)nc(-c2ccc(=O)n(C)c2)n1 [Example 201, Propane-1-sulfonic acid [4-isopropoxy-6-(1-methyl-6-oxo-1,6-dihydro-pyridin-3-yl)-[1,3,5]triazin-2-yl]-amide]
16 | < 500 | Cc1cc(-c2cc(NS(=O)(=O)C(C)C)nc(Oc3cc(Cl)ccc3Cl)n2)cn(C)c1=O [Example 1, Propane-2-sulfonic acid [2-(2,5-dichloro-phenoxy)-6-(1,5-dimethyl-6-oxo-1,6-dihydro-pyridin-3-yl)-pyrimidin-4-yl]-amide]

Row | IC50 [nM] | Compound
17 | < 500 | COc1nc(NC(C)c2ccccc2)cc(-c2ccc(=O)n(C)c2)n1 (stereo not shown) [Example 327, 5-[2-Methoxy-6-(1-phenyl-ethylamino)-pyrimidin-4-yl]-1-methyl-1H-pyridin-2-one]
18 | < 500 | Cc1cccc(C#N)c1Oc1nc(N[C@H](C)c2ccccc2)cc(-c2ccc(=O)n(C)c2)n1 [Example 318, (R)-3-Methyl-2-[4-(1-methyl-6-oxo-1,6-dihydro-pyridin-3-yl)-6-(1-phenyl-ethylamino)-pyrimidin-2-yloxy]-benzonitrile]
19 | < 500 | CCCCS(=O)(=O)Nc1cc(-c2ccc(=O)n(C)c2)nc(Oc2c(F)cccc2OC)n1 [Example 233, Butane-1-sulfonic acid [2-(2-fluoro-6-methoxy-phenoxy)-6-(1-methyl-6-oxo-1,6-dihydro-pyridin-3-yl)-pyrimidin-4-yl]-amide]
20 | < 500 | CC[C@H](C)S(=O)(=O)Nc1cc(-c2ccc(=O)n(C)c2)nc(Oc2c(Cl)ccc(C)c2F)n1 [Example 226, (S)-Butane-2-sulfonic acid [2-(6-chloro-2-fluoro-3-methyl-phenoxy)-6-(1-methyl-6-oxo-1,6-dihydro-pyridin-3-yl)-pyrimidin-4-yl]-amide]
21 | < 500 | Cc1ccc(Cl)c(Oc2nc(NS(=O)(=O)CCC(C)C)cc(-c3ccc(=O)n(C)c3)n2)c1F [Example 262, 3-Methyl-butane-1-sulfonic acid [2-(6-chloro-2-fluoro-3-methyl-phenoxy)-6-(1-methyl-6-oxo-1,6-dihydro-pyridin-3-yl)-pyrimidin-4-yl]-amide]
22 | < 500 | Cc1cccc(Cl)c1Oc1nc(NS(=O)(=O)CCC2CC2)cc(-c2ccc(=O)n(C)c2)n1 [Example 266, 2-Cyclopropyl-ethanesulfonic acid [2-(2-chloro-6-methyl-phenoxy)-6-(1-methyl-6-oxo-1,6-dihydro-pyridin-3-yl)-pyrimidin-4-yl]-amide]
23 | < 500 | CCC(C)S(=O)(=O)Nc1cc(-c2ccc(=O)n(C)c2)nc(Oc2c(F)ccc(F)c2C)n1 (stereo not shown) [Example 351, N-(2-(3,6-difluoro-2-methylphenoxy)-6-(1-methyl-6-oxo-1,6-dihydropyridin-3-yl)pyrimidin-4-yl)butane-2-sulfonamide]
24 | < 500 | COc1ccc(Oc2nc(NS(=O)(=O)C(C)C)cc(-c3cc(C)c(=O)n(C)c3)n2)cc1Cl [Example 68, N-(2-(3-chloro-4-methoxyphenoxy)-6-(1,5-dimethyl-6-oxo-1,6-dihydropyridin-3-yl)pyrimidin-4-yl)propane-2-sulfonamide]
25 | < 500 | CCCCS(=O)(=O)Nc1cc(-c2cn(C)c(=O)cc2C)nc(Oc2c(C)cccc2C)n1 [Example 89, N-(6-(1,4-dimethyl-6-oxo-1,6-dihydropyridin-3-yl)-2-(2,6-dimethylphenoxy)pyrimidin-4-yl)butane-1-sulfonamide]
26 | < 500 | CCC[C@H](C)Nc1cc(-c2ccc(=O)n(C)c2)nc(Oc2c(C)cccc2Cl)n1 [Example 314, (S)-5-[2-(2-Chloro-6-methyl-phenoxy)-6-(1-methyl-butylamino)-pyrimidin-4-yl]-1-methyl-1H-pyridin-2-one]
27 | < 500 | CCCCS(=O)(=O)Nc1cc(-c2cc(F)c(=O)n(C)c2)nc(Oc2c(C)cccc2C)n1 [Example 86, N-(2-(2,6-dimethylphenoxy)-6-(5-fluoro-1-methyl-6-oxo-1,6-dihydropyridin-3-yl)pyrimidin-4-yl)butane-1-sulfonamide]
28 | < 500 | CCCS(=O)(=O)Nc1cc(-c2ccc(=O)n(C)c2)nc(Oc2c(F)cccc2Cl)n1 [Example 143, Propane-1-sulfonic acid [2-(2-chloro-6-fluoro-phenoxy)-6-(1-methyl-6-oxo-1,6-dihydro-pyridin-3-yl)-pyrimidin-4-yl]-amdie]
29 | < 500 | CCCS(=O)(=O)Nc1cc(-c2ccc(=O)n(C)c2)nc(Oc2c(C)nn(C)c2C)n1 [Example 126, Propane-1-sulfonic acid [6-(1-methyl-6-oxo-1,6-dihydro-pyridin-3-yl)-2-(1,3,5-trimethyl-1H-pyrazol-4-yloxy)-pyrimidin-4-yl]-amide]
30 | < 500 | Cc1cccc(F)c1Oc1nc(NCc2cccnc2)cc(-c2ccc(=O)n(C)c2)n1 [Example 303, 5-{2-(2-Fluoro-6-methyl-phenoxy)-6-[(pyridin-3-ylmethyl)-amino]-pyrimidin-4-yl}-1-methyl-1H-pyridin-2-one]
31 | 500 to 5000 | CCCS(=O)(=O)Nc1cc(-c2cc(C)c(=O)n(C)c2)nc(Oc2ccncc2C)n1 [Example 111, Propane-1-sulfonic acid [6-(1,5-dimethyl-6-oxo-1,6-dihydro-pyridin-3-yl)-2-(3-methyl-pyridin-4-yloxy)-pyrimidin-4-yl]-amide]

— patent publication US10202360B2 (CELGENE QUANTICEL RESEARCH, INC., priority 2016, dated 2019)
